Measured values from US8785459B2, “Quinazoline compounds as kinase inhibitors” (Development Center for Biotechnology, priority 2011, dated 2014).

Tests used:
A375 = assay: Anti-proliferative activity, CellTiter-96 assay, A375; type: cell-based; details: Homo sapiens, A-375, A375 cells, 72 hours incubation
Method in brief: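 Cells in DMEM with 10% FCS at 37° C., 5% CO2, plated at 2000 cells/well for 24 h, then exposed to graded compound concentrations for 72 h. CellTiter-96 Aqueous One reagent added for 4.0 h; viability read as absorbance at 490 nm.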

VEGFR2 kinase = VEGFR2 kinase (Homo sapiens (Human), UniProt P35968); assay: VEGFR2 kinase assay; type: biochemical
VEGFR2 kinase, sequence (P35968 834-1162): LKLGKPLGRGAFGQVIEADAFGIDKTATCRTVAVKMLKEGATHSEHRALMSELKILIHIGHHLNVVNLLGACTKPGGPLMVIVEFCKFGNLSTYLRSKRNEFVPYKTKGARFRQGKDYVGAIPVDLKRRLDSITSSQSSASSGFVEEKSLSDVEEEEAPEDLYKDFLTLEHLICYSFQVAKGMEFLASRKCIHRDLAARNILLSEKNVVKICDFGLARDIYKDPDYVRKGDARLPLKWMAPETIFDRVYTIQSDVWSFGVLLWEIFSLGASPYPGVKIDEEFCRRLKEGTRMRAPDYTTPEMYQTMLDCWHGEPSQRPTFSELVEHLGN
Procedure: Inhibition of VEGFR2 kinase activity by compounds disclosed herein was quantified by measuring the amount of [^33P] incorporated into the substrate in the presence of a test compound. […] The reaction was then stopped by adding 5 μL of 3% phosphoric acid solution. The resultant solution was transferred to and harvested by a filter plate (UniFilter-96 GF/B, PerkinElmer). The filter plate was then washed 20 times with d.d. H2O for 5 min followed by the addition of 30 μL of MicroScint™-20 Cocktail (PerkinElmer). After the plate was sealed, the retained radioactivity on the filter was counted using a TopCount™ scintillation detector (PerkinElmer). […]

B-Raf = B-Raf (Homo sapiens (Human), UniProt P15056); assay: Raf kinase assay (B-Raf), [33P] incorporation into MEK1(K97R); type: biochemical; details: for inhibition at 1 µM: 1.0 μM compound, read-out: B-Raf inhibition at 1.0 μM
B-Raf, sequence (P15056 whole entry): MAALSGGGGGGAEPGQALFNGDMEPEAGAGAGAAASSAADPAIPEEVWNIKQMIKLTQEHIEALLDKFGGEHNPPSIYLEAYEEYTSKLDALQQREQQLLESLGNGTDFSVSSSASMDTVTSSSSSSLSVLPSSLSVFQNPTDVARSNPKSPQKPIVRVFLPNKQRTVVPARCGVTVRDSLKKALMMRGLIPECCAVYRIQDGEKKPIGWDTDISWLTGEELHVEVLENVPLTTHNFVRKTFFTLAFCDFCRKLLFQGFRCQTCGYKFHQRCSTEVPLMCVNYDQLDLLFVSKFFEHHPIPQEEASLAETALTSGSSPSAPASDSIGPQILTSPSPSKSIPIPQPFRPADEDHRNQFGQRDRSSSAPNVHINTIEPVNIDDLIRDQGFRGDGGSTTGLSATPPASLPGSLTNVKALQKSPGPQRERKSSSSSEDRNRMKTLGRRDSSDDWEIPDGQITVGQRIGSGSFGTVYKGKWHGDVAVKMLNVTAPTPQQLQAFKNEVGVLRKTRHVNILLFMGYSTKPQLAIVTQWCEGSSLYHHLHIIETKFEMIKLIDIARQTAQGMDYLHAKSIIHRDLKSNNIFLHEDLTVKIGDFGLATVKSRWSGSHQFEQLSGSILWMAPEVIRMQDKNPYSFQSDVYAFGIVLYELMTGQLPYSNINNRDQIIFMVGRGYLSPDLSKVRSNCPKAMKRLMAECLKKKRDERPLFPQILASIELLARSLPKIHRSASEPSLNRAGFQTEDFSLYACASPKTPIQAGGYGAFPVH
Method in brief: (§1)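 Recombinant C-Raf (2 ng) or B-Raf or B-Raf V600E (5 ng each) phosphorylated 500 ng MEK1(K97R) with 8 μM ATP plus [33P]ATP, pH 7.5, 30 min at 30 °C. Filter-captured 33P counted. IC50 from 3-fold compound dilutions run in duplicate.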

FLT3 kinase = FLT3 kinase (Homo sapiens (Human), UniProt P36888); assay: FLT3 kinase assay; type: biochemical
FLT3 kinase, sequence (P36888 610-943): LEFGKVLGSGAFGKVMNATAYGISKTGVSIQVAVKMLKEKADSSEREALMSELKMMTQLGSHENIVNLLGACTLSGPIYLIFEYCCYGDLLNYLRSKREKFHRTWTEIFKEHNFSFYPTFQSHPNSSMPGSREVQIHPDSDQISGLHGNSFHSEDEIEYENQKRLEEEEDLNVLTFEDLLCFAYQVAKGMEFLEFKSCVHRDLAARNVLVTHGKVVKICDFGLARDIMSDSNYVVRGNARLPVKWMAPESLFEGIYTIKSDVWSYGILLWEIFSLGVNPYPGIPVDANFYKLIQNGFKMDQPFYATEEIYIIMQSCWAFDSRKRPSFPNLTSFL
Procedure: Inhibition of FLT3 kinase activity by compounds disclosed herein was quantified by measuring the amount of [^33P] incorporated into the substrate in the presence of a test compound. Briefly, a reaction mixture of 25 μL final volume containing 5 ng of Flt3 kinase (obtained by purifying recombinant N-terminal 6×His-tagged Flt3 kinase domain construct expressed from baculovirus), 5 μg of the substrate (Poly(Glu-Tyr, 4:1, Sigma)), kinase reaction buffer (20 mM MOPS pH 7.0, 1 mM EDTA, 5% glycerol, 0.01% Brij-35, 0.1% β-mercaptoethanol, 1 mg/mL BSA, 100 μM ATP, 0.1 μCi per well [^33P]-γ-ATP (2,500-3,000 Ci/mmol)), and a test compound (100 nM, diluted with 4% DMSO) or DMSO (as the control) was incubated at 30° C. for 30 minutes. The reaction was stopped by adding 5 μL of 3% phosphoric acid solution. The resultant reaction solution was then harvested onto a filter plate (UniFilter-96 GF/B, PerkinElmer), washed 20 times for 5 min with d.d. H2O, and followed by the addition of 30 μL of MicroScint™-20 Cocktail (PerkinElmer). The plate was then sealed and counted using a TopCount™ scintillation detector (PerkinElmer). IC50 value is defined as the concentration of the test compound which achieves a half-maximal inhibition of the kinase activity.

FGFR1 kinase = FGFR1 kinase (Homo sapiens (Human), UniProt P11362); assay: FGFR1 kinase assay; type: biochemical
FGFR1 kinase, sequence (P11362 478-767): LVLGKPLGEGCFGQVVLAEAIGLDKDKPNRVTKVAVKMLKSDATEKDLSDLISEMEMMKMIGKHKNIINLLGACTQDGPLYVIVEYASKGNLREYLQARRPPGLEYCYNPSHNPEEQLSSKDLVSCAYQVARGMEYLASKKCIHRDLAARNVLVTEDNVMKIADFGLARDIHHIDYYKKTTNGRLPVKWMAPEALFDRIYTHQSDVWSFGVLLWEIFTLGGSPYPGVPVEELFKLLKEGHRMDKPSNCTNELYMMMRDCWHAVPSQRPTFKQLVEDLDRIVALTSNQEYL
Procedure: Inhibition of FGFR1 kinase activity by compounds disclosed herein was quantified by measuring the amount of [^33P] incorporated into the substrate in the presence of a test compound. Briefly, a reaction mixture of 25 μL final volume containing 1 ng of FGFR1 kinase (FGFR1 kinase domain alone, Millipore), 5 μg of the substrate [poly(Glu-Tyr), Sigma], kinase reaction buffer (14 mM MOPS pH 7.0, 0.2 mM EDTA, 0.5% glycerol, 0.001% Brij-35, 0.01% β-mercaptoethanol, 0.1 mg/ml BSA, 100 μM ATP, 0.1 μCi per well [^33P]-γ-ATP (2,500-3,000 Ci/mmol)), and a test compound (100 nM, diluted with 4% DMSO) or DMSO (as the control) was incubated at 30° C. for 60 minutes. The reaction was stopped by adding 5 μL of 3% phosphoric acid solution. The resultant reaction solution was then harvested onto a filter plate (UniFilter-96 GF/B, PerkinElmer), washed 20 times for 5 min with d.d. H2O, and followed by the addition of 30 μL of MicroScint™-20 Cocktail (PerkinElmer). The radioactivity retained on the filter membrane was measured by TopCount™ scintillation detector (PerkinElmer). The results were analyzed by using linear regression software (GraphPad Prism™ 4; GraphPad Software Inc.). IC50 value is defined as the concentration of the test compound which achieves a half-maximal inhibition of the kinase activity.

B-Raf (V600E) = B-Raf (V600E) (Homo sapiens (Human), UniProt P15056, V600E); assay: Raf kinase assay (B-Raf (V600E)), [33P] incorporation into MEK1(K97R); type: biochemical
B-Raf (V600E), sequence (P15056 whole entry V600E): as the sequence (P15056 whole entry) above, with V600E counted along it
Method in brief: as §1

COc1cc(-c2ccc3ncnc(Nc4cc(O)ccc4F)c3c2)ccc1O [Compound 58, 4-(4-(2-fluoro-5-hydroxyphenylamino)quinazolin-6-yl)-2-methoxyphenol]
IC50 (A375): 500 ± 100 nM | IC50 (VEGFR2 kinase): 23.5 nM | IC50 (B-Raf): 16.1 nM | inhibition at 1 µM (B-Raf): 92.6% | IC50 (FLT3 kinase): 137 nM | IC50 (FGFR1 kinase): 131 nM | IC50 (B-Raf (V600E)): 23.2 nM

COc1cc(-c2ccc3ncnc(Nc4cccc(O)c4)c3c2)ccc1O [Compound 8, 4-(4-(3-hydroxyphenylamino)quinazolin-6-yl)-2-methoxyphenol]
IC50 (A375): 900 ± 200 nM | IC50 (VEGFR2 kinase): 139 nM | IC50 (B-Raf): 30.2 nM | inhibition at 1 µM (B-Raf): 94.2% | IC50 (FLT3 kinase): 271 nM | IC50 (FGFR1 kinase): 413 nM | IC50 (B-Raf (V600E)): 37.4 nM
